The values below come from the METLIN SMRT retention time set (Domingo-Almenara et al. 2019).

SMILES strings stand for the structures.

The series can be described thus: gradient 5% acetonitrile 3 min, to 50% in 2 min, to 85% in 15 min, held 3 min, 100 µL/min. The note with it: column: Zorbax Extend-C18 2.1 x 50 mm; eluents: water / acetonitrile, 0.1% formic acid. The gist of the method: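 The mobile phases were water and acetonitrile, each with 0.1% formic acid, pumped at 100 μL/min through a Zorbax Extend-C18 column (2.1 × 50 mm, 1.8 μm). Pure standards were injected as mixtures of ~100 molecules and detected by a quadrupole time-of-flight mass spectrometer in positive and negative ionization mode. Retention time came from computationally picked adduct peaks, each inspected by hand.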
Compound `COc1cc(C)c(C)cc1S(=O)(=O)NCC1CCN(C(=O)Oc2ccccc2)CC1` had an RP-LC retention time of 964 s.

`CN1C(=O)c2cccnc2Sc2cc(C(=O)NCc3ccccc3)ccc21` had an RP-LC retention time of 746 s.

The compound `Cc1ccc(S(=O)(=O)N2CCC(n3cnc4ccc(C)cc4c3=O)CC2)cc1` had an RP-LC retention time of 925 s.

As for `Cn1cnc2ccc(-c3noc(-c4ccc(F)cc4)n3)cc21`, the RP-LC retention time came to 739 s.

`Cc1ccccc1CNc1nc2ccncc2n(C(C)C)c1=O` showed an RP-LC retention time of 745 s.

Compound `Cn1nc(CC(=O)Nc2ccccc2Br)c2ccccc2c1=O` had an RP-LC retention time of 774 s.

In the case of `COc1ccccc1-c1nc(Cn2nnc(-c3nc(-c4ccc(Cl)cc4)no3)c2C)c(C)o1`, the RP-LC retention time was 1220 s.

With `CNC(=O)C1CCN(c2nc3ncn(CC(=O)Nc4c(C)cc(C)cc4C)c(=O)c3s2)CC1`, the RP-LC retention time was determined as 646 s.

For `Cc1ccc(Nc2c(-c3ccc(C)cc3)nc3cccc(C)n23)cc1`, the RP-LC retention time stood at 782 s.

Turning to `O=C(NCc1ccncc1)C1CC(=O)N(CCc2c[nH]c3ccc(F)cc23)C1` (centres undefined), the RP-LC retention time stood at 588 s.

On to `CC(=O)N1CCc2ccccc2C1C(=O)N1CCN(c2ccccn2)CC1` (centres undefined), for which the RP-LC retention time came to 587 s.

On to `CCOC(=O)c1[nH]c(C)c(CN(Cc2ccco2)C(=O)c2ccco2)c1C`, for which the RP-LC retention time was 902 s.

For `COc1nc2ccccc2nc1N1CCCC(C(=O)N2CCN(c3ccccc3Cl)CC2)C1` (centres undefined), the RP-LC retention time worked out at 1360 s.

For the compound `CC(=O)Nc1ccc(N2C(=O)c3cccc4c([N+](=O)[O-])ccc(c34)C2=O)cc1`, the RP-LC retention time worked out at 714 s.

`c1ccc(-c2nc(-c3ccnc(N4CCOCC4)c3)no2)nc1`: the RP-LC retention time was determined as 665 s.

Take `COc1cccc(-c2cc(N3CCN(C(=O)NC(C)C)CC3)ncn2)c1`: the RP-LC retention time amounted to 612 s.

On to `CN(C)c1ccc(/C=C/C(=O)c2ccccc2)cc1Br`, for which the RP-LC retention time came out at 1170 s.

`Cn1cc2c3c(cccc31)CN(C(=O)C1CCC1)CC2` gave an RP-LC retention time of 878 s.

The compound `COc1ccc(CC(=O)NC(C(=O)Nc2nc3ccccc3[nH]2)C(C)C)c(Cl)c1` (centres undefined) showed an RP-LC retention time of 744 s.

On to `COc1cccc(-c2nc3cnccn3c2NCCC(=O)NC2CCN(C)CC2)c1`, for which the RP-LC retention time turned out to be 554 s.

Consider `Cc1ccc(OCC(O)CN2CCN(c3ccccc3)CC2)cc1C` (centres undefined), for which the RP-LC retention time was found to be 726 s.

`Cc1ccc(-n2c(C)c(C)c3c(=O)n(CC(=O)NC4CC4)cnc32)cc1`: the RP-LC retention time was 769 s.

`CC(C)OCCCNCc1ccc2c(c1)n(C)c(=O)n2C` returned an RP-LC retention time of 592 s.

In turn, `O=C(CC1CCCC1)N1CCCC(c2nc(-c3ccncc3)n[nH]2)C1` (centres undefined) came in with an RP-LC retention time of 577 s.

Compound `CCOc1ccc(-c2nc(COc3cc(C)c4c(C)nn(C)c4n3)c(C)o2)cc1OC` displayed an RP-LC retention time of 1110 s.

On to `CCC(=O)N1CCc2cc(CNS(=O)(=O)c3ccc(OC)c(OC)c3)ccc21`, for which the RP-LC retention time came out at 747 s.

`Cc1ccc(CC(=O)NC2CCN(c3ccc(C)c(C)c3)C2=O)cc1` (centres undefined): the RP-LC retention time worked out at 904 s.

`O=C1CC(c2noc(-c3ccc(F)cc3)n2)CN1c1ccc(F)c(Cl)c1` (centres undefined) returned an RP-LC retention time of 1100 s.

Take `CCOC(=O)C1CCN(C(=O)C2COC3(CCCCC3)N2C(=O)c2ccccc2)CC1` (centres undefined): the RP-LC retention time was found to be 808 s.

For the compound `CC(C)CN1CCn2cc(S(=O)(=O)NCc3ccc(F)cc3Cl)cc2C1=O`, the RP-LC retention time came to 838 s.

Regarding `O=C(CCSc1ccccc1)NCCn1cnc(-c2ccc(F)cc2)cc1=O`, the RP-LC retention time worked out at 759 s.

Regarding `CN1CCC[C@@H]1Cc1c[nH]c2ccc(CCS(=O)(=O)c3ccccc3)cc12`, the RP-LC retention time was determined as 604 s.

`CCc1ccc(C(=O)NCCc2nc3cccnc3n2CC)cc1` had an RP-LC retention time of 694 s.

In the case of `CC(C)c1noc(-c2cc(=O)n(CC(=O)Nc3ccc(F)c(Cl)c3)c3ccccc23)n1`, the RP-LC retention time was 1100 s.

Consider `O=C(NCC1(c2cccs2)CCOCC1)c1ccccc1F`, for which the RP-LC retention time is 763 s.

The compound `O=C(Nc1cnn(-c2ncc(N3CCCCC3)cn2)c1)c1ccccn1` gave an RP-LC retention time of 814 s.

As to `CCC(=O)N1c2ccc(S(=O)(=O)CCC(=O)NCCc3ccc(C)cc3)cc2CC1C` (centres undefined), the RP-LC retention time stood at 874 s.

`O=C(NCc1cccnc1)C1CC(=O)N(c2ccc3c(c2)CCN3C(=O)C2CCC2)C1` (centres undefined) gave an RP-LC retention time of 598 s.

As to `O=C(NCc1cccnc1)C1CCCN(C(=O)c2cc3ccsc3n2Cc2cccc(Cl)c2)C1` (centres undefined), the RP-LC retention time is 711 s.

In turn, `Cc1cc2c(=O)n(CC(=O)Nc3cccc(Cl)c3)c3cccnc3n2n1` showed an RP-LC retention time of 742 s.

`O=C1C(N2CCN(S(=O)(=O)c3ccc(Cl)s3)CC2)CCN1Cc1ccccn1` (centres undefined) gave an RP-LC retention time of 613 s.

In the case of `CCc1nccn1Cc1noc(-c2ccccc2C)n1`, the RP-LC retention time is 649 s.

The compound `O=C(NCc1ccc(F)cc1F)c1csc(C(=O)NC2CCCC2)n1` returned an RP-LC retention time of 895 s.

In turn, `CCc1ccc(NC(=O)N2CCCC(C)(C(=O)NCc3ccccc3)C2)cc1` (centres undefined) gave an RP-LC retention time of 878 s.

As for `O=C(NCCC1=CCCCC1)c1nc(Nc2ccccc2)c2ccccc2n1`, the RP-LC retention time came to 960 s.

As for `CN(C)C(=O)c1ccc2c(c1)n(Cc1ccc(F)cc1)c(=O)c1ccnn12`, the RP-LC retention time is 780 s.

For the compound `CC(=O)N1C[C@@H](C(=O)NCCc2c(C)noc2C)[C@H](c2nc(C)no2)C1`, the RP-LC retention time worked out at 609 s.

Turning to `CCN1C(=O)c2cc(C(=O)Nc3ccc(C)cc3C)nn2CC1(C)C(=O)NC1CCCC1` (centres undefined), the RP-LC retention time amounted to 800 s.

Compound `O=C(c1csc(N2CCCCCC2)n1)N1CCOCC1` showed an RP-LC retention time of 767 s.

Consider `CCc1noc(C2CCCCN2Cc2nc(Cc3ccccc3)no2)n1` (centres undefined), for which the RP-LC retention time stood at 958 s.

In turn, `Cc1cc(=O)n(CC(=O)N2CCc3ccccc32)c(N2CCOCC2)n1` yielded an RP-LC retention time of 667 s.

In turn, `COc1ccc(NC(=O)Cn2nc(C(=O)N3CCOCC3)c3ccccc32)cc1` had an RP-LC retention time of 712 s.

Compound `COc1cc([C@H]2c3cc4c(cc3[C@@H](O)[C@H](CO)[C@H]2C(=O)Nc2ccccc2)OCO4)cc(OC)c1OC` yielded an RP-LC retention time of 730 s.

`CCn1ncc(CN2CCC[C@H]2c2nc(-c3ccccc3)n[nH]2)c1C` registered an RP-LC retention time of 601 s.

With `Cc1ccccc1-c1nnc(CSc2nnc(NC(=O)c3c(F)cccc3F)s2)o1`, the RP-LC retention time came out at 905 s.

`CC(CCNC(=O)c1ccc2ccnc(N3CCN(c4ccc(F)cc4)CC3)c2c1)N1CCCC1` (centres undefined): the RP-LC retention time came out at 597 s.

The compound `Cc1ccccc1-c1noc(Cn2nc(-c3ccccc3F)ccc2=O)n1` showed an RP-LC retention time of 986 s.

`O=C(CCCc1ccccc1)N1CCN(c2ccc(-n3cccn3)nn2)CC1`: the RP-LC retention time was found to be 758 s.

`O=C(O)c1cccc2c1CCN2S(=O)(=O)c1ccccc1F` showed an RP-LC retention time of 812 s.

The compound `CN1C(=O)c2cccn2CC1C(=O)NC1CCCCCC1` (centres undefined) displayed an RP-LC retention time of 731 s.

`CCCn1c(=O)c(C)nc2cc(-c3noc(CN4C(=O)COc5ccc(Cl)cc54)n3)ccc21` returned an RP-LC retention time of 1060 s.

With `CSc1ccc(-c2noc(Cn3c(=O)n(-c4ccccc4F)c(=O)c4sccc43)n2)cc1`, the RP-LC retention time worked out at 1040 s.

For `O=C(Cn1cccc1-c1nnc(C2CCC2)o1)NCc1ccc(F)cc1`, the RP-LC retention time worked out at 832 s.

The compound `COC(=O)c1nnn(-c2nonc2N)c1CN1CCN(c2ccccn2)CC1` showed an RP-LC retention time of 578 s.

In turn, `Cn1ccc2cc(S(=O)(=O)N3CCC(C(=O)N4CCN(c5ccccn5)CC4)CC3)ccc21` yielded an RP-LC retention time of 648 s.

In the case of `O=C(NCCc1csc(C2CCCN(C(=O)C3CCCCC3)C2)n1)C1CC1` (centres undefined), the RP-LC retention time came to 760 s.

The compound `CC1(C(=O)NCc2ccc(Cl)cc2)Oc2cccnc2NC1=O` (centres undefined) had an RP-LC retention time of 725 s.

`Cc1ccc(N2C(=O)CC(Nc3ccc(N4CCOCC4)cc3)C2=O)c(Br)c1` (centres undefined): the RP-LC retention time was determined as 618 s.

In turn, `Cc1ccc(-c2ccc3nn(CC(=O)Nc4ccc(C)cc4Br)c(=O)n3n2)cc1` displayed an RP-LC retention time of 960 s.

Take `CS(=O)(=O)N1CCC(OC2CCN(C(=O)NCc3cccc(F)c3)CC2)CC1`: the RP-LC retention time turned out to be 730 s.

In turn, `O=C(NCC(c1ccsc1)N1CCCCCC1)C(=O)Nc1ccc2c(c1)OCCO2` (centres undefined) displayed an RP-LC retention time of 570 s.

`COc1ccc(N2CC(C(=O)N3CCc4cc(-c5ccno5)ccc43)CC2=O)cc1` (centres undefined) came in with an RP-LC retention time of 807 s.

`CNS(=O)(=O)c1ccc(Cl)c(-c2nnc(-c3ccc(OC)cc3)o2)c1` displayed an RP-LC retention time of 883 s.

Take `CCC(=O)N(CCOC)CC(=O)N1CCc2sccc2C1COc1ccccc1F` (centres undefined): the RP-LC retention time came out at 831 s.

On to `Cc1nn2c(CNS(=O)(=O)Cc3ccc(Cl)cc3)c(-c3ccccc3)nc2s1`, for which the RP-LC retention time was determined as 954 s.

The compound `COc1cccc(C(=O)COc2cc(O)c3c(=O)cc(-c4ccccc4)oc3c2)c1` returned an RP-LC retention time of 1170 s.

The compound `Cn1c(=O)c(N2CCCC(C(=O)NCCCN3CCCCCC3)C2)nc2cccnc21` (centres undefined) registered an RP-LC retention time of 581 s.

For the compound `Cc1oc2cc3oc(=O)c(CCC(=O)N4CCN(c5ccccn5)CC4)c(C)c3cc2c1C`, the RP-LC retention time came to 682 s.

Take `CCn1cc(-c2nc(CC(=O)NCc3ccc4c(c3)OCO4)cs2)c2cccnc21`: the RP-LC retention time is 835 s.
